Test results published in paper PMC8759731, “Design, synthesis, and evaluation of novel coumarin-dithiocarbamate derivatives (IDs) as anti-colorectal cancer agents” (Journal of Enzyme Inhibition and Medicinal Chemistry, 2021).

Columns and labels:
BRD4 (BD2) = target: T1, BRD4 (BD2) (Homo sapiens, UniProt O60885); test: HTRF assay BRD4 (BD2); assay type: binding; details: read-out: Inhibitory rate at 10 μM, BRD4 (BD2)
T1 construct: purchased Reaction Biology Corp. RD-11-158
Description: (§1) In brief, compounds were serially diluted in Echo plate according to the plate map and DMSO’s final fraction is 0.1%. Then, transferring compounds and DMSO to 384-well assay plate by Echo. After that, 2× Protein and Peptide Mix was added to the assay plate and 2× Detection Mix was then added to assay plate and shook for 30 s. After incubating the plate at room temperature for 1.5 h, the HTRF signals (Excitation wavelength at 340 nm, Emission wavelength at 615 & 665 nm) was read on EnVision (PerkinElmer, UK). (+)-JQ1 (BPS Bioscience, Cat. No. 27402) was used as a positive control. BRD4-1 (RD-11–157) and BRD4-2 (RD-11–158) were purchased from Reaction Biology Corp. (PENN, USA). For Curve fitting, the inhibition values was calculated in Excel using Equation (1): Inhibition %=(Max-Signal)/(Max-Min)*100, and the IC50 values was calculated in XL-Fit using Equation (2): Y = Bottom + (Top-Bottom)/(1+(IC50/X)[…]), Y is %inhibition and X is compound concentration.

BRD4 (BD1) = target: T2, BRD4 (BD1) (Homo sapiens, UniProt O60885); test: HTRF assay BRD4 (BD1); assay type: binding; details: 10 μM, read-out: Inhibitory rate at 10 μM, BRD4 (BD1)
T2 construct: purchased Reaction Biology Corp. RD-11-157
Description: as §1

SW480 cells = test: MTS cell viability assay, SW480 cells; assay type: cell-based; details: Homo sapiens, 10 μM, 72 h
From the text: (§2) Human colorectal cancer cell lines including RKO, SW620 and SW480 were purchased from Chinese Academy of Sciences, a typical cell library culture preservation committee (Shanghai, China). Normal human colon epithelial cell line NCM460 was purchased from ATCC (Washington, DC, USA). RPMI-1640 medium (12633020), foetal bovine serum (FBS, 26170043), penicillin-streptomycin (10378016) and phosphate buffered saline (PBS, 70011044) were purchased from Gibco (Eggenstein, Germany). 5-Fluorouracil (5-FU, E0201010050, purity ≥98%) was purchased from Energy Chemical (Shanghai, China). Dimethyl sulfoxide (DMSO, 41639) was obtained from Sigma-Aldrich (St. Louis, MO). 3–(4,5-dimethylthiazol-2-yl)-5–(3-carboxymethoxyphenyl)-2–(4-sulfophenyl)-2H-tetrazolium (MTS, G1111) was purchased from Promega (Madison, WI, USA). All cell lines were cultured in RPMI-1640 medium supplemented with 10% FBS, penicillin (100 units/mL) and streptomycin ([…]) at 37 °C in a humidified atmosphere containing 5% CO2.
(§3) Cell viability was measured via MTS assay. RKO, SW620, SW480 and NCM460 cells were seeded in 96-well plates at a density of 5000 cells per well for 24 h. After treatment with the test compounds at indicated concentration for another 48 h or 72 h at 37 °C, MTS solution was added to each well and incubated for another 30 min at 37 °C. Then, the absorbance at 490 nm was measured by a BioTek Synergy H4 microplate Reader (Vermont, USA). The IC50 values were calculated with Graphpad 7.0 software packages.

SW620 cells = test: MTS cell viability assay, SW620 cells; assay type: cell-based; details: Homo sapiens, SW-620, 10 μM, 72 h
From the text: as §2, §3

RKO cells = test: MTS cell viability assay, RKO cells; assay type: cell-based; details: Homo sapiens, 10 μM, 72 h
From the text: as §2, §3

[1] = MTS cell viability assay, NCM460 normal colon epithelial cells; assay type: cell-based, human; details: human, NCM460 normal colon epithelial cells, 10 μM
From the text: as §2, §3

| SMILES | inhibition at 10 µM (BRD4 (BD2)) [%] | melting point [°C] | inhibition at 10 µM (BRD4 (BD1)) [%] | viability at 10 µM (SW480 cells) [%] | viability at 10 µM (SW620 cells) [%] | viability at 10 µM (RKO cells) [%] | viability at 48 h, 10 µM [1] [%] |
| --- | --- | --- | --- | --- | --- | --- | --- |
| CN(C)C(=S)SCc1ccc2oc(=O)ccc2c1 [ID-1, (2-Oxo-2H-chromen-6-yl)methyl dimethylcarbamodithioate] | 1.5 | 151.6 to 152.5 | 2.2 | – | – | – | – |
| O=c1ccc2cc(CSC(=S)N3CCCCC3)ccc2o1 [ID-8, (2-Oxo-2H-chromen-6-yl)methyl piperidine-1-carbodithioate] | 8.2 | 130.1 to 131 | 7.8 | – | – | – | – |
| CN1CCN(C(=S)SCc2ccc3oc(=O)ccc3c2)CC1 [ID-12, (2-Oxo-2H-chromen-6-yl)methyl 4-methylpiperazine-1-carbodithioate] | 26.5 | 124.3 to 125.2 | 35.5 | – | – | – | – |
| O=c1ccc2cc(CSC(=S)N3CC(O)C3)ccc2o1 [ID-6, (2-Oxo-2H-chromen-6-yl)methyl 3-hydroxyazetidine-1-carbodithioate] | 8.7 | 137.8 to 138.7 | 15 | – | – | – | – |
| CCCCN(CCCC)C(=S)SCc1ccc2oc(=O)ccc2c1 [ID-4, (2-Oxo-2H-chromen-6-yl)methyl dibutylcarbamodithioate] | 3.1 | – | 4.2 | – | – | – | – |
| O=c1ccc2cc(CSC(=S)N3CCCCCC3)ccc2o1 [ID-9, (2-Oxo-2H-chromen-6-yl)methyl azepane-1-carbodithioate] | 5 | 72.6 to 73.5 | 6.3 | – | – | – | – |
| CCCN(CCC)C(=S)SCc1ccc2oc(=O)ccc2c1 [ID-3, (2-Oxo-2H-chromen-6-yl)methyl dipropylcarbamodithioate] | 3.3 | 52.3 to 53.2 | 1.6 | – | – | – | – |
| CCN(CC)C(=S)SCc1ccc2oc(=O)ccc2c1 [ID-2, (2-Oxo-2H-chromen-6-yl)methyl diethylcarbamodithioate] | 5.1 | 100.1 to 101 | 4.3 | – | – | – | – |
| O=c1ccc2cc(CSC(=S)N3CCC3)ccc2o1 [ID-5, (2-Oxo-2H-chromen-6-yl)methyl azetidine-1-carbodithioate] | 5.8 | 144 to 145 | 6.2 | – | – | – | – |
| O=c1[nH]cc(F)c(=O)[nH]1 [5-FU, 5-Fluorouracil, reference compound] | – | – | – | 43.9 | 33.6 | 40.7 | 80.4 |
| O=c1ccc2cc(CSC(=S)N3CCCC3)ccc2o1 [ID-7, (2-Oxo-2H-chromen-6-yl)methyl pyrrolidine-1-carbodithioate] | 7.1 | 110.2 to 111.1 | 9.2 | – | – | – | – |
| O=c1ccc2cc(CSC(=S)N3CCOCC3)ccc2o1 [ID-10, (2-Oxo-2H-chromen-6-yl)methyl morpholine-4-carbodithioate] | 19.6 | 135.4 to 136.3 | 27.2 | – | – | – | – |
| CC(C)N1CCN(C(=S)SCc2ccc3oc(=O)ccc3c2)CC1 [ID-13, (2-Oxo-2H-chromen-6-yl)methyl 4-isopropylpiperazine-1-carbodithioate] | 10.8 | 73.6 to 74.5 | 14.4 | – | – | – | – |

Continued, in another order:

| inhibition at 10 µM (BRD4 (BD2)) [%] | melting point [°C] | inhibition at 10 µM (BRD4 (BD1)) [%] | SMILES | viability at 10 µM (SW480 cells) [%] | viability at 10 µM (SW620 cells) [%] | viability at 10 µM (RKO cells) [%] | viability at 48 h, 10 µM [1] [%] |
| --- | --- | --- | --- | --- | --- | --- | --- |
| 29.3 | 95 to 96 | 36.6 | CN1CCN(C2CCN(C(=S)SCc3ccc4oc(=O)ccc4c3)CC2)CC1 [ID-20, (2-Oxo-2H-chromen-6-yl)methyl 4–(4-methylpiperazin-1-yl)piperidine-1-carbodithioate] | – | – | – | – |
| 3.2 | 115.6 to 116.5 | 6.5 | O=c1ccc2cc(CSC(=S)N3CCC(c4ccccc4)CC3)ccc2o1 [ID-19, (2-Oxo-2H-chromen-6-yl)methyl 4-phenylpiperidine-1-carbodithioate] | – | – | – | – |
| 8.4 | 181.5 to 182.4 | 11.8 | N#Cc1ccc(N2CCN(C(=S)SCc3ccc4oc(=O)ccc4c3)CC2)cc1 [ID-18, (2-Oxo-2H-chromen-6-yl)methyl 4–(4-cyanophenyl)piperazine-1-carbodithioate] | – | – | – | – |
| 33.3 | 120.9 to 121.8 | 40.2 | O=c1ccc2cc(CSC(=S)N3CCN(CCO)CC3)ccc2o1 [ID-15, (2-Oxo-2H-chromen-6-yl)methyl 4–(2-hydroxyethyl)piperazine-1-carbodithioate] | – | – | – | – |
| 16.6 | 159.4 to 160.3 | 12.8 | CC(C)(C)N1CCN(C(=S)SCc2ccc3oc(=O)ccc3c2)CC1 [ID-14, (2-Oxo-2H-chromen-6-yl)methyl 4-(tert-butyl)piperazine-1-carbodithioate] | – | – | – | – |
| 27.7 | 195.5 to 196.4 | 39 | O=c1ccc2cc(CSC(=S)N3CCN(c4ccc(O)cc4)CC3)ccc2o1 [ID-17, (2-Oxo-2H-chromen-6-yl)methyl 4–(4-hydroxyphenyl)piperazine-1-carbodithioate] | – | – | – | – |
| 12.9 | 106.9 to 107.8 | 20.1 | O=c1ccc2cc(CSC(=S)N3CCN(C4CCCCC4)CC3)ccc2o1 [ID-16, (2-Oxo-2H-chromen-6-yl)methyl 4-cyclohexylpiperazine-1-carbodithioate] | – | – | – | – |
